According to the supplement of paper PMC10627819:

Legend:
S. pneumoniae D39V [1] = experiment: fitness (endpoint OD595 vs no drug) (fraction); higher = more growth
Outline: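 Bacterial growth was followed in 384-well plates seeded at OD595 0.01, with 30 µl per well, or 55 µl for S. pneumoniae, in TSB, LB Lennox or CY at 37 °C. OD595 was read every 30 min for 14 h, and each reading had the first reading subtracted as background. Fitness is the background-corrected optical density at entry into stationary phase divided by the robust mean of the no-drug control wells. This ratio is capped at 1.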

B. subtilis 168 = experiment: Bliss interaction score (quartile over a dose matrix) (fitness difference); higher = more antagonism (negative = synergy)
Outline: (§1)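 Values were capped at 1 after dividing OD595 at stationary-phase entry by the plate's robust no-drug mean. This ratio is fitness, and single-drug fitness was inferred from the combination data. The Bliss score is observed minus product-expected fitness, given as quartiles over technical, biological and donor/recipient replicates.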

S. aureus DSM 20231 = experiment: as above
Outline: as §1

S. aureus Newman = experiment: as above
Outline: as §1

S. pneumoniae D39V [2] = experiment: as above
Outline: as §1
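Throughout, for Bliss interaction score (quartile over a dose matrix): first quartile when negative (synergy) and third quartile when positive (antagonism).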

Clc1ccc(COC(Cn2ccnc2)c2ccc(Cl)cc2Cl)c(Cl)c1 (centres undefined) [Miconazole] + CN[C@@H]1[C@H](O)[C@H](NC)[C@H]2O[C@@]3(O)C(=O)C[C@@H](C)O[C@H]3O[C@@H]2[C@H]1O [Spectinomycin]
fitness, S. pneumoniae D39V [1]
Details	first compound 1.073 µg/mL	first compound 2.145 µg/mL	first compound 4.29 µg/mL
partner 4 µg/mL	≥ 1	≥ 1	0.88
partner 8 µg/mL	0.966	0.995	0.961
partner 16 µg/mL	0.942	0.963	0.893

fitness, S. pneumoniae D39V [1], one replicate
Details	first compound 1.25 µg/mL	first compound 2.5 µg/mL	first compound 5 µg/mL
partner 4 µg/mL	0.963	0.95	0.985
partner 8 µg/mL	0.891	0.879	0.906

Details	Bliss interaction score
B. subtilis 168	0.0664
S. aureus DSM 20231	-0.0228
S. aureus Newman	0.0708
S. pneumoniae D39V [2]	0.09

CC1=C(C(=O)O)N2C(=O)[C@@H](NC(=O)[C@H](N)c3ccccc3)[C@H]2SC1 [Cephalexin] + CO[C@H]1/C=C/O[C@@]2(C)Oc3c(C)c(O)c4c(O)c(c(/C=N/N5CCN(C)CC5)c(O)c4c3C2=O)NC(=O)/C(C)=C\C=C\[C@H](C)[C@H](O)[C@@H](C)[C@@H](O)[C@@H](C)[C@H](OC(C)=O)[C@@H]1C [Rifampicin]
fitness, S. pneumoniae D39V [1], one replicate
Details	first compound 0.125 µg/mL	first compound 0.25 µg/mL	first compound 0.5 µg/mL	first compound 1 µg/mL	first compound 2 µg/mL	first compound 4 µg/mL
partner 0.025 µg/mL	–	–	–	0.258	0.0265	0.0322
partner 0.05 µg/mL	0.714	0.774	0.7	–	–	–
partner 0.1 µg/mL	0.314	0.257	0.225	–	–	–
partner 0.2 µg/mL	0.207	0.141	0.108	0	0	0

fitness, S. pneumoniae D39V [1]
Details	first compound 1 µg/mL	first compound 2 µg/mL	first compound 4 µg/mL
partner 0.05 µg/mL	0.301	0.0661	0.0542
partner 0.1 µg/mL	0.14	0.0642	0.0638

Details	Bliss interaction score
B. subtilis 168	0.12
S. aureus DSM 20231	0.0837
S. aureus Newman	0.0156
S. pneumoniae D39V [2]	-0.065

Clc1ccc(COC(Cn2ccnc2)c2ccc(Cl)cc2Cl)c(Cl)c1 (centres undefined) [Miconazole] + CN[C@H](CC(C)C)C(=O)N[C@H]1C(=O)N[C@@H](CC(N)=O)C(=O)N[C@H]2C(=O)N[C@H]3C(=O)N[C@H](C(=O)N[C@H](C(=O)O)c4cc(O)cc(O)c4-c4cc3ccc4O)[C@H](O)c3ccc(c(Cl)c3)Oc3cc2cc(c3O[C@@H]2O[C@H](CO)[C@@H](O)[C@H](O)[C@H]2O[C@H]2C[C@](C)(N)[C@H](O)[C@H](C)O2)Oc2ccc(cc2Cl)[C@H]1O [Vancomycin]
fitness, S. pneumoniae D39V [1]
Details	first compound 1.073 µg/mL	first compound 1.25 µg/mL	first compound 2.145 µg/mL	first compound 2.5 µg/mL	first compound 4.29 µg/mL	first compound 5 µg/mL
partner 0.03125 µg/mL	–	0.993	–	≥ 1	–	0.966
partner 0.0625 µg/mL	–	0.909	–	0.923	–	0.913
partner 0.125 µg/mL	0.884	0.759	0.851	0.81	0.84	0.731
partner 0.5 µg/mL	–	–	–	–	0.415	–

Details	Bliss interaction score
B. subtilis 168	0.0343
S. aureus DSM 20231	0.0309
S. aureus Newman	0.0654
S. pneumoniae D39V [2]	0.154

Clc1ccc(COC(Cn2ccnc2)c2ccc(Cl)cc2Cl)c(Cl)c1 (centres undefined) [Miconazole] + C/C(=C\C(=O)OCCCCCCCCC(=O)O)C[C@@H]1OC[C@H](C[C@@H]2O[C@H]2[C@@H](C)[C@H](C)O)[C@@H](O)[C@H]1O [Pseudomonic acid]
fitness, S. pneumoniae D39V [1]
Details	first compound 1.073 µg/mL	first compound 1.25 µg/mL	first compound 2.145 µg/mL	first compound 2.5 µg/mL	first compound 4.29 µg/mL	first compound 5 µg/mL
partner 0.03 µg/mL	0.988	0.915	≥ 1	0.894	≥ 1	0.88
partner 0.06 µg/mL	0.914	0.746	0.94	0.754	0.981	0.681
partner 0.12 µg/mL	0.734	0.563	0.759	0.551	–	0.549

Details	Bliss interaction score
B. subtilis 168	-0.0459
S. aureus DSM 20231	0.0125
S. aureus Newman	-0.0143
S. pneumoniae D39V [2]	0.126

CC1=C(C(=O)O)N2C(=O)[C@@H](NC(=O)[C@H](N)c3ccccc3)[C@H]2SC1 [Cephalexin] + O=C1CN(/N=C/c2ccc([N+](=O)[O-])o2)C(=O)N1 [Nitrofurantoin]
fitness, S. pneumoniae D39V [1], one replicate
Details	first compound 0.125 µg/mL	first compound 0.25 µg/mL	first compound 0.5 µg/mL	first compound 1 µg/mL	first compound 2 µg/mL	first compound 4 µg/mL
partner 2 µg/mL	0.934	0.942	0.958	–	–	–
partner 4 µg/mL	0.92	0.958	0.953	–	–	–
partner 5.14 µg/mL	–	–	–	0.716	0.243	0.0653
partner 8 µg/mL	0.756	0.775	0.805	–	–	–

fitness, S. pneumoniae D39V [1]
Details	first compound 1 µg/mL	first compound 2 µg/mL	first compound 4 µg/mL
partner 1.285 µg/mL	0.762	0.226	0.0641
partner 2.57 µg/mL	0.768	0.336	0.0742

Details	Bliss interaction score
B. subtilis 168	0.0716
S. aureus DSM 20231	0.145
S. aureus Newman	0.0656
S. pneumoniae D39V [2]	0.168

Clc1ccc(COC(Cn2ccnc2)c2ccc(Cl)cc2Cl)c(Cl)c1 (centres undefined) [Miconazole] + CN1C2=CC=CC=C2N=C3C1=CC=CC3=O [Pyocyanin]
fitness, S. pneumoniae D39V [1]
Details	first compound 1.073 µg/mL	first compound 2.145 µg/mL	first compound 4.29 µg/mL
partner 0.325 µg/mL	≥ 1	≥ 1	≥ 1
partner 0.65 µg/mL	0.975	1	0.908
partner 1.3 µg/mL	0.787	–	0.729

fitness, S. pneumoniae D39V [1], one replicate
Details	first compound 1.25 µg/mL	first compound 2.5 µg/mL	first compound 5 µg/mL
partner 0.325 µg/mL	0.917	0.916	0.93
partner 0.65 µg/mL	0.963	0.905	0.907

Details	Bliss interaction score
B. subtilis 168	-0.0752
S. aureus DSM 20231	0.0453
S. aureus Newman	0.0548
S. pneumoniae D39V [2]	0.0535

Clc1ccc(COC(Cn2ccnc2)c2ccc(Cl)cc2Cl)c(Cl)c1 (centres undefined) [Miconazole] + COc1c(N2C[C@@H]3CCCN[C@@H]3C2)c(F)cc2c(=O)c(C(=O)O)cn(C3CC3)c12 [Moxifloxacin]
fitness, S. pneumoniae D39V [1]
Details	first compound 1.073 µg/mL	first compound 1.25 µg/mL	first compound 2.145 µg/mL	first compound 2.5 µg/mL	first compound 4.29 µg/mL	first compound 5 µg/mL
partner 0.0037 µg/mL	0.959	–	0.951	–	0.802	–
partner 0.005 µg/mL	–	0.935	–	0.926	–	0.953
partner 0.0075 µg/mL	0.986	–	0.942	–	0.796	–
partner 0.01 µg/mL	–	0.925	–	0.936	–	0.961
partner 0.015 µg/mL	0.957	–	0.942	–	0.682	–
partner 0.02 µg/mL	–	0.825	–	0.828	–	0.911

Details	Bliss interaction score
B. subtilis 168	-0.0223
S. aureus DSM 20231	-0.059
S. aureus Newman	0.0536
S. pneumoniae D39V [2]	0.0598
